Data: patent US9969696B2, “Compounds as inhibitor of DNA double-strand break repair, methods and applications thereof” (INDIAN INSTITUTE OF SCIENCE, priority 2012, dated 2018)

Tests used:
[1] = tested on: DNA end joining (NHEJ); assay: NHEJ assay, cell-free extracts prepared from rat testes; assay type: biochemical
Method: ATP end-labeled oligomeric DNA substrate (75 bp) containing 4 nt overhangs at 5′ ends (about 2 h at 25° C.). In the case of vehicle control, DMSO is used. […] The reaction products are purified and resolved on about 8% denaturing polyacrylamide gel.
FIG. 2 depicts the NHEJ assay and study of joining efficiency. A. Schematic representation of NHEJ assay and substrates containing DSBs. B. Comparison of the effect of potential Ligase IV inhibitors on DNA end joining. The joined products are indicated. “M” represents [g-32 ? P] ATP end-labeled 50 by ladder. C. Quantification of the joining efficiency. […] “PSLU” is “photostimulated luminescence unit”. […] Products are resolved on 1% agarose gel and visualized. Ethidium bromide is used as a positive control for the intercalation assay.
The reaction products are resolved on 8% denaturing PAGE. “M” represents [γ-^32P]ATP end-labeled 50 by ladder. […] “M” is a 2 log DNA ladder.
A. Western blotting showing presence of Ligase IV/XRCC4 in eluted fractions. W is wash, 1 and 2 are different fractions. […] Concentrations of inhibitors used are indicated. For other details, FIG. 4 legend can be referred. C. […] Radiolabeled oligomeric DNA substrates containing 5′ compatible termini are then added to the reaction along with increasing concentrations of purified Ligase IV/XRCC4 complex (30, 60 and 120 fmol) and products are resolved on a PAGE. F. Bar diagram representing quantification of the complementation experiment performed on 5′-5′ and 5′-3′ noncomplementary ends. In all panels quantification of EJ based on 3 independent experiments is represented as mean±SEM.

[2] = molecular target: T1, Ligase IV/XRCC4 complex binding to DNA (Homo sapiens, UniProt P49917); assay: Gel supershift of Ligase IV/XRCC4 on KU:DNA complex; details: increasing concentrations 10-700 μM
T1 construct: made in house
Method: (§1) A. Western blot analysis of KU70 and KU80 proteins in purified fractions. W is wash, 1, 2 and 3 are different fractions. B. Binding of KU proteins to DNA breaks. [−γ^32P]ATP end-labeled oligomeric DNA substrate containing DSB is incubated for about 30 min on ice with purified KU or Ligase IV/XRCC4 complex. For Ligase IV/XRCC4 supershift, first KU and DNA are incubated followed by addition of Ligase IV/XRCC4 (about 60 fmol). Reaction mixture is resolved on 1-6% native gradient PAGE. C. […] After preincubation of KU with DNA substrates, Ligase IV/XRCC4 complex (about 60 fmol) and increasing concentrations of inhibitor (10, 50, 100, 200, 500 and 700µM) are added, incubated and products are resolved on a gradient native PAGE. D-1 and D-2. […] CD spectra are obtained at a wavelength of 200-260 nm for […]

[3] = molecular target: T2, Ligase IV (Homo sapiens, UniProt P49917); assay: CD spectroscopy, Ligase IV; assay type: binding; details: 200-260 nm
T2 construct: made in house
T2 sequence (P49917 1-911): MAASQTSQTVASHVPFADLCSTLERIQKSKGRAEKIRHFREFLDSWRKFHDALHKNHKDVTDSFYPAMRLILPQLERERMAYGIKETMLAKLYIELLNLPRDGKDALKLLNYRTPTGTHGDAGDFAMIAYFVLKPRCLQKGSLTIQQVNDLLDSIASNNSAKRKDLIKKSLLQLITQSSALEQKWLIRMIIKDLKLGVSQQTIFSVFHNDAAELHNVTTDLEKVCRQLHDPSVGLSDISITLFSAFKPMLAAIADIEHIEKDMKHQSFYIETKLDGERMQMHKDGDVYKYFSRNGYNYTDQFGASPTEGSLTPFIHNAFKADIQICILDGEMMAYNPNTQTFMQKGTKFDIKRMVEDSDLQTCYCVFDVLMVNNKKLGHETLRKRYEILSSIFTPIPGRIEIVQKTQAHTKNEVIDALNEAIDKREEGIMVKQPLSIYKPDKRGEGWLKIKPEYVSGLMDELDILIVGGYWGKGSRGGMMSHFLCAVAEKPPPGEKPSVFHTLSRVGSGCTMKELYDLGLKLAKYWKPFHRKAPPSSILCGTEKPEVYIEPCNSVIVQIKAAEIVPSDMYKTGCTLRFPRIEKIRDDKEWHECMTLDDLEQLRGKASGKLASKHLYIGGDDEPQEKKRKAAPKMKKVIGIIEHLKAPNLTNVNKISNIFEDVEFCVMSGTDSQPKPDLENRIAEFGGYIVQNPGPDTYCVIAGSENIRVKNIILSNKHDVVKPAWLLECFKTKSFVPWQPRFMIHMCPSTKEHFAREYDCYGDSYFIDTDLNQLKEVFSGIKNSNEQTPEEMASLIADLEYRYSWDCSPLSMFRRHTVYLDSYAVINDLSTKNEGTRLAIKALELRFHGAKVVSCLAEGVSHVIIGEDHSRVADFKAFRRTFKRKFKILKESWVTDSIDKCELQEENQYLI
Method: as §1

[4] = tested on: HeLa cells; assay: γH2AX foci immunofluorescence, HeLa; assay type: cell-based, human
[5] = tested on: MCF7; assay: MTT assay, MCF7; assay type: cell-based, human
[6] = tested on: A549; assay: MTT assay, A549; assay type: cell-based; details: Homo sapiens
[7] = tested on: A2780; assay: MTT assay, A2780; assay type: cell-based; details: Homo sapiens
[8] = tested on: HT1080; assay: MTT assay, HT1080; assay type: cell-based; details: Homo sapiens, HT-1080
[9] = tested on: CEM; assay: MTT assay, CEM; assay type: cell-based; details: Homo sapiens, CCRF-CEM
[10] = tested on: K562; assay: MTT assay, K562; assay type: cell-based; details: Homo sapiens
[11] = tested on: breast adenocarcinoma induced tumor; assay: Breast adenocarcinoma (EAC) solid tumor model in mice; assay type: in vivo; details: about 10 mg/kg, 6 doses, intramuscular, vs untreated controls
Description: (§2) Data shown is from three independent batches of experiments containing 8 animals each. […] B-1 and B-2. […] Data shown is from two independent batches of experiments containing 10 animals each. […] C.

[12] = tested on: Dalton's lymphoma; assay: Dalton's lymphoma (DLA) mouse model; assay type: in vivo, mice
Description: as §2
Data shown is from two independent batches of experiments containing 5 animals each. […] C. […] DMSO treated cells are used as vehicle control. γH2AX foci formation is detected as described in FIG. 10. […] Data shown are from three independent experiments and in each case foci from a minimum of about 50 cells are counted. In panels A, B, C, D, E, significance levels are indicated (ns: not significant, *p<0.05, **p<0.01, ***p<0.001).

T1 sequence (Q13426 whole entry partner, one chain of several): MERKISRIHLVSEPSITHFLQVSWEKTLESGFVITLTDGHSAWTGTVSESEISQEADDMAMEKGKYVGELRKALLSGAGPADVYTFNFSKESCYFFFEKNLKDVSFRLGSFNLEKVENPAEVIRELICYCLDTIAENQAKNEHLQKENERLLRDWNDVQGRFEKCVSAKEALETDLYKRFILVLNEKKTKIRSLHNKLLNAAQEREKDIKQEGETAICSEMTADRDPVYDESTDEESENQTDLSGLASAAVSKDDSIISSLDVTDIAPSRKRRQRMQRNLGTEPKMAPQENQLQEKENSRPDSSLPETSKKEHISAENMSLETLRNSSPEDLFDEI

Band corresponding to Ligase IV/XRCC4 supershift on KU:DNA [2]: dose-dependent reduction
CD spectrum of Ligase IV upon addition of compound [3]: clear shift in the spectrum
IC50 [6]: ~35 µM
IC50 [7]: ~15 µM
IC50 [8]: ~60 µM
IC50 [10]: > 100 µM
Structure (SMILES): Oc1nc(S)nc(/N=C/c2ccccc2)c1/N=C/c1ccccc1 [Compound 1, (5E,6E)-5,6-bis(benzylideneamino)-2-mercaptopyrimidin-4-ol]
End joining in testicular extracts ([1]; Compound 1 about 150 μM added to testicular extracts): abrogates end joining
Complementation by purified Ligase IV/XRCC4 of inhibited end joining ([1]; Compound 1 about 150 μM, Ligase IV/XRCC4 30, 60, 120 fmol added): restores joining for all the ends
Inhibition of end joining (EJ) of various types of DSBs ([1]; cell-free repair system from rat testes, compatible, noncompatible, blunt ends): inhibits end joining (EJ) irrespective of type and configurations of DSB
Inhibition of DNA end joining (joining efficiency) ([1]; rat testes extracts about 0.5 μg, inhibitors about 150 μM, 75 bp oligomeric DNA with 4 nt 5' overhangs): most potent inhibitor
γH2AX foci [4]: increase in γH2AX foci in a concentration-dependent manner
Effect on cell proliferation (MTT) [5]: dose-dependent effect on cell proliferation
IC50 [9]: > 100 µM
Tumor progression [11]: significantly reduces breast adenocarcinoma induced tumor
Tumor growth, together with etoposide ([12]; 20 mg/kg + etoposide 10 mg/kg intraperitoneally): substantial reduction in tumor growth
Tumor growth, in conjunction with radiation ([12]; about 20 mg/kg intraperitoneally + irradiation 2 Gy, 2 doses, 7 and 14 days): significant decrease in tumor growth
Lifespan ([12]; about 20 mg/kg, 6 doses, Compound 1 alone): nor increase in lifespan
